Reference: ChEMBL document CHEMBL5126582, “Discovery of (2-(pyrrolidin-1-yl)thieno[3,2-d]pyrimidin-4-yl)(3,4,5-trimethoxyphenyl)methanone as a novel potent tubulin depolymerizing and vascular disrupting agent” (Eur J Med Chem, 2022)
Calls of active or inactive are those of the source. The calls are words filed in the database; no cut-off is given here.

Tests used:
HeLa [1] = assay: Induction of apoptosis in human HeLa cells assessed as early apoptotic cells at 100 nM incubated for 72 hrs by annexin V FITC and propidium iodide staining based flow cytometry analysis (reference value: 2.36%); assay type: functional
HeLa [2] = assay: Induction of mitochondrial membrane potential alteration in human HeLa cells assessed as early apoptotic cells at 250 nM measured after 48 hrs by JC1 staining-based flow cytometry analysis (reference value: 9.07 %); assay type: functional
HeLa [3] = assay: Induction of mitochondrial membrane potential alteration in human HeLa cells assessed as necrotic cells at 1 uM measured after 48 hrs by JC1 staining-based flow cytometry analysis (reference value: 0%); assay type: functional
HeLa [4] = assay: Antiproliferative activity against human HeLa cells assessed as reduction in cell viability incubated for 48 hrs by MTS assay; assay type: functional, cell-based
HeLa [5] = assay: Induction of apoptosis in human HeLa cells assessed as late apoptotic cells at 1 uM incubated for 24 hrs by annexin V FITC and propidium iodide staining based flow cytometry analysis (reference value: 0.05%); assay type: functional
HeLa [6] = assay: Induction of cell cycle arrest in human HeLa cells assessed as reduction of cells at S phase at 100 to 2000 nM incubated for 24 to 48 hrs by […] flow cytometry; assay type: functional; conditions: dose 100-2000 nM, time 24-48 hrs
HeLa [7] = assay: Induction of mitochondrial membrane potential alteration in human HeLa cells assessed as necrotic cells at 100 nM measured after 48 hrs by JC1 staining-based flow cytometry analysis (reference value: 0%); assay type: functional
HeLa [8] = assay: Induction of apoptosis in human HeLa cells assessed as necrotic cells at 100 nM incubated for 48 hrs by annexin V FITC and propidium iodide staining based flow cytometry analysis (reference value: 1.85 %); assay type: functional
HeLa [9] = assay: Induction of apoptosis in human HeLa cells assessed as necrotic cells at 1 uM incubated for 24 hrs by annexin V FITC and propidium iodide staining based flow cytometry analysis (reference value: 1.14 %); assay type: functional
HeLa [10] = assay: Induction of mitochondrial membrane potential alteration in human HeLa cells assessed as late apoptotic cells at 100 nM measured after 48 hrs by JC1 staining-based flow cytometry analysis (reference value: 0.009%); assay type: functional
Tubulin (Homo sapiens) = Tubulin (Homo sapiens) (UniProt P68371+Q9H4B7+P0DPH7+P68366+Q13509+Q71U36+P04350+Q3ZCM7+P07437+P68363+Q9BQE3+Q6PEY2+Q13885+Q9BVA1+Q9BUF5); assay: Disruption of microtubule network in human HeLa cells at 100 to 500 nM incubated for 3 hrs by laser confocal microscopy analysis; assay type: cell-based; conditions: dose 100-500 nM, DDE = dose-dependent effect
HeLa [11] = assay: Induction of apoptosis in human HeLa cells assessed as early apoptotic cells at 1 uM incubated for 72 hrs by annexin V FITC and propidium iodide staining based flow cytometry analysis (reference value: 2.36%); assay type: functional
HeLa [12] = assay: Induction of mitochondrial membrane potential alteration in human HeLa cells assessed as late apoptotic cells at 750 nM measured after 48 hrs by JC1 staining-based flow cytometry analysis (reference value: 0.009%); assay type: functional
HeLa [13] = assay: Induction of apoptosis in human HeLa cells assessed as viable cells at 100 nM incubated for 24 hrs by annexin V FITC and propidium iodide staining based flow cytometry analysis (reference value: 85.7%); assay type: functional; conditions: read-out: Activity
HeLa [14] = assay: Induction of apoptosis in human HeLa cells assessed as necrotic cells at 500 nM incubated for 24 hrs by annexin V FITC and propidium iodide staining based flow cytometry analysis (reference value: 1.14 %); assay type: functional
HeLa [15] = assay: Induction of mitochondrial membrane potential alteration in human HeLa cells assessed as viable cells at 750 nM measured after 48 hrs by JC1 staining-based flow cytometry analysis (Rvb =90.9 %); assay type: functional; conditions: read-out: Activity
HeLa [16] = assay: Induction of apoptosis in human HeLa cells assessed as necrotic cells at 750 nM incubated for 72 hrs by annexin V FITC and propidium iodide staining based flow cytometry analysis (reference value: 2.88 %); assay type: functional
HeLa [17] = assay: Induction of apoptosis in human HeLa cells assessed as late apoptotic cells at 1 uM incubated for 72 hrs by annexin V FITC and propidium iodide staining based flow cytometry analysis (reference value: 4.70%); assay type: functional
HeLa [18] = assay: Induction of apoptosis in human HeLa cells assessed as early apoptotic cells at 500 nM incubated for 72 hrs by annexin V FITC and propidium iodide staining based flow cytometry analysis (reference value: 2.36%); assay type: functional
HeLa [19] = assay: Induction of mitochondrial membrane potential alteration in human HeLa cells assessed as necrotic cells at 750 nM measured after 48 hrs by JC1 staining-based flow cytometry analysis (reference value: 0%); assay type: functional
HeLa [20] = assay: Inhibition of colony formation in human HeLa cells assessed as reduction in colony formation at 1 to 250 nM incubated for 48 hrs followed by culturing in fresh compound-free medium for 10 days by crystal violet staining based assay; assay type: functional, cell-based; conditions: dose 1-250 nM, DDE = dose-dependent effect
HeLa [21] = assay: Induction of mitochondrial membrane potential alteration in human HeLa cells assessed as necrotic cells at 250 nM measured after 48 hrs by JC1 staining-based flow cytometry analysis (reference value: 0%); assay type: functional
HeLa [22] = assay: Induction of mitochondrial membrane potential alteration in human HeLa cells assessed as early apoptotic cells at 1 uM measured after 48 hrs by JC1 staining-based flow cytometry analysis (reference value: 9.07 %); assay type: functional
HeLa [23] = assay: Induction of apoptosis in human HeLa cells assessed as late apoptotic cells at 750 nM incubated for 48 hrs by annexin V FITC and propidium iodide staining based flow cytometry analysis (reference value: 8.87%); assay type: functional
HeLa [24] = assay: Induction of apoptosis in human HeLa cells assessed as necrotic cells at 1 uM incubated for 48 hrs by annexin V FITC and propidium iodide staining based flow cytometry analysis (reference value: 1.85 %); assay type: functional
HeLa [25] = assay: Induction of apoptosis in human HeLa cells assessed as early apoptotic cells at 100 nM incubated for 48 hrs by annexin V FITC and propidium iodide staining based flow cytometry analysis (reference value: 6.01%); assay type: functional
HeLa [26] = assay: Induction of apoptosis in human HeLa cells assessed as necrotic cells at 1 uM incubated for 72 hrs by annexin V FITC and propidium iodide staining based flow cytometry analysis (reference value: 2.88 %); assay type: functional
HeLa [27] = assay: Induction of apoptosis in human HeLa cells assessed as late apoptotic cells at 500 nM incubated for 48 hrs by annexin V FITC and propidium iodide staining based flow cytometry analysis (reference value: 8.87%); assay type: functional
HeLa [28] = assay: Induction of apoptosis in human HeLa cells assessed as late apoptotic cells at 500 nM incubated for 72 hrs by annexin V FITC and propidium iodide staining based flow cytometry analysis (reference value: 4.70%); assay type: functional
HeLa [29] = assay: Induction of mitochondrial membrane potential alteration in human HeLa cells assessed as early apoptotic cells at 500 nM measured after 48 hrs by JC1 staining-based flow cytometry analysis (reference value: 9.07 %); assay type: functional
HeLa [30] = assay: Induction of mitochondrial membrane potential alteration in human HeLa cells assessed as viable cells at 500 nM measured after 48 hrs by JC1 staining-based flow cytometry analysis (reference value: 90.9%); assay type: functional; conditions: read-out: Activity

`COc1cc(C(=O)c2nc(N3CCCC3)nc3ccsc23)cc(OC)c1OC` showed an Activity (HeLa [1]) of 2.65%, an Activity (HeLa [2]) of 9.45% and an Activity (HeLa [3]) of 0.053%. The IC50 (HeLa [4]) was 3 nM, the Activity (HeLa [5]) was 0.13% and the Activity (HeLa [6]) was “Active”. It also gave an Activity (HeLa [7]) of 0.02%, an Activity (HeLa [8]) of 2.38% and an Activity (HeLa [9]) of 4.52%. For the same compound, the Activity (HeLa [10]) was 0.02%, the Activity (Tubulin (Homo sapiens)) was “Dde” and the Activity (HeLa [11]) was 5.47%. The Activity (HeLa [12]) was 0.077%, the viability at 0.1 µM (HeLa [13]) was 80.5% and the Activity (HeLa [14]) was 1.74%. For the same compound, the viability at 0.75 µM (HeLa [15]) was 56.7%, the Activity (HeLa [16]) was 40.8% and the Activity (HeLa [17]) was 24.7%. For the same compound, the Activity (HeLa [18]) was 0.734%, the Activity (HeLa [19]) was 0.019% and the inhibition (HeLa [20]) was “Dde”. For the same compound, the Activity (HeLa [21]) was 0.01%, the Activity (HeLa [22]) was 55.3% and the Activity (HeLa [23]) was 33.1%. The Activity (HeLa [24]) was 46.3%, the Activity (HeLa [25]) was 2.8% and the Activity (HeLa [26]) was 41.9%. The Activity (HeLa [27]) was 10.8%, the Activity (HeLa [28]) was 14.5% and the Activity (HeLa [29]) was 33.1%. For the same compound, the viability at 0.5 µM (HeLa [30]) was 66.9%.
